Results published in patent US10945932B2, “Prebiotic oral care compositions containing carboxylic acids” (COLGATE-PALMOLIVE COMPANY, priority 2013, dated 2021).

Columns and labels:
Assay in all cases: Biofilm growth assay in BHI, crystal violet
Assay type in all cases: cell-based
Actinomyces naeslundii = settings: A naeslundii
Procedure: (§1) Late exponential growth phase liquid cultures were prepared by transferring the respective bacterium from blood agar plates to BHI and overnight incubation at 37° C. in an anaerobic atmosphere for A. viscosus, V. parvula, F. nucleatum, P. gingivalis, P. intermedia, T. forsythia, A. naeslundii, and C. sputigena, and in a 5% CO2 environment for S. salivarius, S. sanguinis, S. mitis, A. actinomycetemcomitans, S. mutans, and S. gordonii. […] Additionally, for each bacterium tested, a background control, to correct for background staining, was added. This background control contained the bacterium tested and 0.03 weight % chlorhexidine, as an antiseptic. Plates were incubated as previously described. After 48 hrs the supernatant was removed from the wells of the plates. The wells were washed twice with 1×100 μL/PBS (phosphate buffered saline), fixed for 20 minutes with 96% vol. ethanol (96% vol. solution in water) and the biofilm retained at the bottom of the wells was stained with 1 weight % crystal violet (1 weight % solution in water). […] Quantification of the stained biofilm was performed by measuring the absorbance at 630 nm using a Multiskan Ascent microplate reader (Thermo Scientific).

Actinomyces viscosus = settings: A viscosus
Procedure: as §1

[1] = system: Aggregatibacter actinomycetemcomitans; settings: A actinomycetemcomitans
Procedure: as §1

Capnocytophaga sputigena = settings: C sputigena
Procedure: as §1

Fusobacterium nucleatum = settings: F nucleatum
Procedure: as §1

Porphyromonas gingivalis = settings: P gingivalis
Procedure: as §1

Prevotella intermedia = settings: P intermedia
Procedure: as §1

Streptococcus gordonii = settings: S gordonii
Procedure: as §1

Streptococcus mitis = settings: S mitis
Procedure: as §1

Streptococcus mutans = settings: S mutans
Procedure: as §1

Streptococcus salivarius = settings: S salivarius
Procedure: as §1

## O=C(O)CCC(=O)O [Succinic acid, succinic acid]
Actinomyces naeslundii; 5 μmol/ml
  biofilm growth, OD at 630 nm (crystal violet) at 48 hrs divided by OD of control (control = 1): 0.7746
Actinomyces naeslundii; 10 μmol/ml
  biofilm growth, OD at 630 nm (crystal violet) at 48 hrs divided by OD of control (control = 1): 0.2490
Actinomyces naeslundii; 20 μmol/ml
  biofilm growth, OD at 630 nm (crystal violet) at 48 hrs divided by OD of control (control = 1): 0.0240
Actinomyces naeslundii; 25 μmol/ml
  biofilm growth, OD at 630 nm (crystal violet) at 48 hrs divided by OD of control (control = 1): 0.0182
Actinomyces viscosus; 5 μmol/ml
  biofilm growth, OD at 630 nm (crystal violet) at 48 hrs divided by OD of control (control = 1): 0.3969
Actinomyces viscosus; 10 μmol/ml
  biofilm growth, OD at 630 nm (crystal violet) at 48 hrs divided by OD of control (control = 1): 0.3190
Actinomyces viscosus; 20 μmol/ml
  biofilm growth, OD at 630 nm (crystal violet) at 48 hrs divided by OD of control (control = 1): 0.0498
Actinomyces viscosus; 25 μmol/ml
  biofilm growth, OD at 630 nm (crystal violet) at 48 hrs divided by OD of control (control = 1): 0.0622
[1]; 5 μmol/ml
  biofilm growth, OD at 630 nm (crystal violet) at 48 hrs divided by OD of control (control = 1): 0.6941
[1]; 10 μmol/ml
  biofilm growth, OD at 630 nm (crystal violet) at 48 hrs divided by OD of control (control = 1): 0.5093
[1]; 20 μmol/ml
  biofilm growth, OD at 630 nm (crystal violet) at 48 hrs divided by OD of control (control = 1): 0.0593
[1]; 25 μmol/ml
  biofilm growth, OD at 630 nm (crystal violet) at 48 hrs divided by OD of control (control = 1): 0.0581
Capnocytophaga sputigena; 5 μmol/ml
  biofilm growth, OD at 630 nm (crystal violet) at 48 hrs divided by OD of control (control = 1): 2.0880
Capnocytophaga sputigena; 10 μmol/ml
  biofilm growth, OD at 630 nm (crystal violet) at 48 hrs divided by OD of control (control = 1): 2.1577
Capnocytophaga sputigena; 20 μmol/ml
  biofilm growth, OD at 630 nm (crystal violet) at 48 hrs divided by OD of control (control = 1): 0.2256
Capnocytophaga sputigena; 25 μmol/ml
  biofilm growth, OD at 630 nm (crystal violet) at 48 hrs divided by OD of control (control = 1): 0.3202
Fusobacterium nucleatum; 5 μmol/ml
  biofilm growth, OD at 630 nm (crystal violet) at 48 hrs divided by OD of control (control = 1): 2.7146
Fusobacterium nucleatum; 10 μmol/ml
  biofilm growth, OD at 630 nm (crystal violet) at 48 hrs divided by OD of control (control = 1): 5.3887
Fusobacterium nucleatum; 20 μmol/ml
  biofilm growth, OD at 630 nm (crystal violet) at 48 hrs divided by OD of control (control = 1): 0.5404
Fusobacterium nucleatum; 25 μmol/ml
  biofilm growth, OD at 630 nm (crystal violet) at 48 hrs divided by OD of control (control = 1): 0.1087
Porphyromonas gingivalis; 5 μmol/ml
  biofilm growth, OD at 630 nm (crystal violet) at 48 hrs divided by OD of control (control = 1): 1.0520
Porphyromonas gingivalis; 10 μmol/ml
  biofilm growth, OD at 630 nm (crystal violet) at 48 hrs divided by OD of control (control = 1): 1.0031
Porphyromonas gingivalis; 20 μmol/ml
  biofilm growth, OD at 630 nm (crystal violet) at 48 hrs divided by OD of control (control = 1): 0.1065
Porphyromonas gingivalis; 25 μmol/ml
  biofilm growth, OD at 630 nm (crystal violet) at 48 hrs divided by OD of control (control = 1): 0.1691
Prevotella intermedia; 5 μmol/ml
  biofilm growth, OD at 630 nm (crystal violet) at 48 hrs divided by OD of control (control = 1): 0.8344
Prevotella intermedia; 10 μmol/ml
  biofilm growth, OD at 630 nm (crystal violet) at 48 hrs divided by OD of control (control = 1): 0.7023
Prevotella intermedia; 20 μmol/ml
  biofilm growth, OD at 630 nm (crystal violet) at 48 hrs divided by OD of control (control = 1): 0.0589
Prevotella intermedia; 25 μmol/ml
  biofilm growth, OD at 630 nm (crystal violet) at 48 hrs divided by OD of control (control = 1): 0.1442
Streptococcus gordonii; 5 μmol/ml
  biofilm growth, OD at 630 nm (crystal violet) at 48 hrs divided by OD of control (control = 1): 2.3866
Streptococcus gordonii; 10 μmol/ml
  biofilm growth, OD at 630 nm (crystal violet) at 48 hrs divided by OD of control (control = 1): 4.4978
Streptococcus gordonii; 20 μmol/ml
  biofilm growth, OD at 630 nm (crystal violet) at 48 hrs divided by OD of control (control = 1): 1.6591
Streptococcus gordonii; 25 μmol/ml
  biofilm growth, OD at 630 nm (crystal violet) at 48 hrs divided by OD of control (control = 1): 0.5512
Streptococcus mitis; 5 μmol/ml
  biofilm growth, OD at 630 nm (crystal violet) at 48 hrs divided by OD of control (control = 1): 0.1603
Streptococcus mitis; 10 μmol/ml
  biofilm growth, OD at 630 nm (crystal violet) at 48 hrs divided by OD of control (control = 1): 0.1188
Streptococcus mitis; 20 μmol/ml
  biofilm growth, OD at 630 nm (crystal violet) at 48 hrs divided by OD of control (control = 1): 0.0851
Streptococcus mitis; 25 μmol/ml
  biofilm growth, OD at 630 nm (crystal violet) at 48 hrs divided by OD of control (control = 1): 0.1085
Streptococcus mutans; 5 μmol/ml
  biofilm growth, OD at 630 nm (crystal violet) at 48 hrs divided by OD of control (control = 1): 0.0053
Streptococcus mutans; 10 μmol/ml
  biofilm growth, OD at 630 nm (crystal violet) at 48 hrs divided by OD of control (control = 1): 0.2498
Streptococcus mutans; 20 μmol/ml
  biofilm growth, OD at 630 nm (crystal violet) at 48 hrs divided by OD of control (control = 1): 1.9127
Streptococcus mutans; 25 μmol/ml
  biofilm growth, OD at 630 nm (crystal violet) at 48 hrs divided by OD of control (control = 1): 0.9686
Streptococcus salivarius; 5 μmol/ml
  biofilm growth, OD at 630 nm (crystal violet) at 48 hrs divided by OD of control (control = 1): 3.7553
Streptococcus salivarius; 10 μmol/ml
  biofilm growth, OD at 630 nm (crystal violet) at 48 hrs divided by OD of control (control = 1): 1.2358
Streptococcus salivarius; 20 μmol/ml
  biofilm growth, OD at 630 nm (crystal violet) at 48 hrs divided by OD of control (control = 1): 0.6125
